Test results from article PMC10044120, “Potent and selective covalent inhibition of the papain-like protease from SARS-CoV-2” (Nature Communications, 2023).
“And” between values parts separate entries of the source, which are not always exact repeats. Equal entries are not always repeated.

Key:
Assay type in all cases: cell-based
[1] = system: SARS-CoV-2 Delta (B.1.617.2); experiment: CPE assay, neutral red, Vero E6 cells with 2 μM CP-100356, Delta
[2] = system: SARS-CoV-2 Delta (B.1.617.2); experiment: microbe, parasite or virus in culture
[3] = system: SARS-CoV-2 Omicron (B.1.1.529); experiment: microbe, parasite or virus in culture

For COC(=O)/C=C/C(=O)NNC(=O)CCc1ccccc1C(=O)N[C@H](C)c1cccc2ccccc12 [Compound 7, methyl(R,E)-4-(2-(3-(2-((1-(naphthalen-1 yl)ethyl)carbamoyl)phenyl)propanoyl)hydrazineyl)-4-oxobut-2-enoate], the “Percent Cytopathic Effect (Neutral Red)” value [1] was 49.9% and 76.0% and 99.5% and 99.2%, the “Virus Titer” value [2] was 4.5 CCID50/mL (Log10) and 4.7 CCID50/mL (Log10) and 5.0 CCID50/mL (Log10) and the “Virus Titer” value [3] was 2.5 CCID50/mL (Log10) and 3.0 CCID50/mL (Log10).
